One may read the IC50 as the concentration that inhibits the measured activity by half. Read a low IC50 as higher potency. As usually defined, the EC50 is the concentration at which the effect is half-maximal. A lower EC50 goes with greater potency.

Assay [1] in a line: In vitro cytotoxicity assessed by measuring [3H]-thymidine uptake in human peripheral blood mononuclear (PBM) cells. It counts as functional.
A short description of assay [2]: In vitro anti-HIV activity in human peripheral blood mononuclear (PBM) cells acutely infected with HIV-1 LAI. The format is functional.

Turning to `COC(=O)c1ccc([C@H]2OOC3(CCC[C@@H](C)C3)[C@@H](OC)O2)cc1` (some centres undefined), the IC50 in assay [1] was greater than 100 µM. In assay [2], this molecule gave an EC50 greater than 100 µM.

In assay [1], `CCCC[C@H]1O[C@@H]2O[C@]3(C)CC[C@H]4[C@H](C)CC[C@@H]([C@H]1C)[C@@]24OO3` registered an IC50 of 1.3 µM. Moreover, the EC50 in assay [2] is 4.7 µM.

In assay [1], `C[C@@H]1CC[C@H]2[C@@H](C)CCO[C@@H]3O[C@]4(C)CC[C@@H]1[C@]32OO4` displayed an IC50 greater than 100 µM. The molecule further displayed an EC50 in assay [2] of 50.2 µM.

Consider `C[C@@H]1CC[C@H]2[C@@H](C)C(=O)O[C@@H]3O[C@@]4(C)CC[C@@H]1[C@]32OO4` [ARTEMISININ], for which the IC50 in assay [1] is greater than 100 µM. The molecule also gave an EC50 in assay [2] greater than 100 µM.

`CCO[C@H]1O[C@@H]2O[C@@]3(C)CC[C@H]4[C@H](C)CC[C@@H]([C@H]1C)[C@@]24OO3` [ARTEMOTIL] had an IC50 in assay [1] of 30.9 µM. The EC50 in assay [2] amounted to 41.2 µM.

In the case of `C[C@@H]1CC[C@H]2[C@@H](C)CO[C@@H]3O[C@]4(C)CC[C@@H]1[C@]32OO4` [DEOXOARTEMISININ], the IC50 in assay [1] was greater than 100 µM. The same molecule displayed an EC50 in assay [2] greater than 100 µM.

Consider `Cc1cn([C@H]2C[C@H](N=[N+]=[N-])[C@@H](CO)O2)c(=O)[nH]c1=O` [ZIDOVUDINE], for which, in assay [1], the IC50 was greater than 100 µM. This molecule also displayed an EC50 in assay [2] of 0.004 µM.

For the origin of these results see ChEMBL document CHEMBL1159193, “Synthesis and in vitro anti-human immunodeficiency virus activity of artemisinin (qinghaosu)-related trioxanes” (Bioorg Med Chem Lett, 1994).
